In patent US7973219B2, “Method for producing transgenic plants resistant to weed control compounds which disrupt the porphyrin pathways of plants” (Sumitomo Chemical Company, Limited, priority 1998, dated 2011):

Key:
[1] = system: E. coli BT3/pACYCSP+pRASSL strain; assay: Growth of E. coli BT3/pACYCSP+pRASSL with herbicidal compound; type: cell-based, Escherichia coli; details: 1 ppm, 18 hours culture, Table 15
Description: (§1) According to the description of Gibson, L. C. D. et al., Proc. Natl. Acad. Sci. USA, 92; p 1941 (1995), the DNA fragment containing bchH gene prepared in Example 1 was digested with the restriction enzymes NdeI and BglII. The resultant DNA fragment was inserted between NdeI restriction site and BamHI restriction site of expression vector pET11a (manufactured by Stratagene) to obtain plasmid pETBCH (FIG. 1). This plasmid pETBCH was introduced into E. coli BL21(DE3) strain competent cells (manufactured by Stratagene) according to the manual attached to the competent cells to obtain E. coli BL21(DE3)/pETBCH strain. […] When the absorbance at 600 nm of the liquid culture medium became about 0.6, isopropyl β-D-thiogalactopyranoside (IPTG) was added to the liquid culture medium so that the final concentration was 0.4 mM, and the culture was continued for about additional 20 hours. […]
(§2) These E. coli strains were inoculated into YPT medium containing 1 ppm of the PPO inhibitory-type herbicidal compound represented by Structure 8, 100 μg/ml ampicillin, 15 μg/ml chloramphenicol, 10 μg/ml kanamycin, 10 μg/ml hemin and 50 μg/ml aminolevulinic acid, cultured under dark conditions or light conditions according to the same manner as in Example 2. Then, 18 hours after initiation of culture, the absorbance of liquid culture medium was measured at 600 nm. […]

[2] = system: E. coli BT3/pACYCSP+pRASSL8 strain; assay: Growth of E. coli BT3/pACYCSP+pRASSL8 with herbicidal compound; type: cell-based, Escherichia coli; details: 1 ppm, 18 hours culture, Table 16
Description: as §1
as §2, with “absorbance of the liquid culture” for “absorbance of liquid culture”

## C#CCOc1cc(N2C(=O)C3=C(CCCC3)C2=O)c(F)cc1Cl [Structure 8]
[1]; in the dark
  Relative absorbance: 1.0
[1]; in the light
  Relative absorbance: 0.59
[2]; in the dark
  Relative absorbance: 1.0
[2]; in the light
  Relative absorbance: 0.79
